Reference: patent publication US20150313825A1, “METHODS AND COMPOSITIONS FOR LOCALLY INCREASING BODY FAT” (TOPOKINE THERAPEUTICS, INC., priority 2012, published 2015)
Where two headings read alike, the source gives them in different places. Marks after values point to notes of the source that are not given here.

Experiments:
subcutaneous fat [1] = details: for Rosiglitazone Increase over Placebo (fat thickness), MEAN: 42 days, p<0.0001
Description: A prospective controlled trial was performed in 4 Gottingen minipigs (2 males, 2 females). Hair on the back was clipped. […] An equivalent Vehicle Treatment Area was marked on the left side of the animal, such that the two treatment areas were anatomically equivalent. […] After 42 days of treatment, plasma pharmacokinetics (PK) was assessed on all animals by Liquid Chromatography/Tandem Mass Spectrometry. Necropsy was done and samples of skin, subcutaneous fat, and muscle were collected en bloc from each treatment area in a controlled fashion. […] Table 5 presents the thicknesses of subcutaneous fat on each of six treated and control (vehicle) locations, by animal. […] Table 6 compares plasma PK following percutaneous administration (present study) with plasma PK following oral administration in humans.

[2] = oral, 4 mg/d, humans; cited from earlier work
subcutaneous fat [3] = test: Mouse study of percutaneous rosiglitazone, methods of Example 1 (Example 2); details: rosiglitazone 0.1% or 0.3% by weight
subcutaneous fat [4] = test: Randomized controlled trial in mice, daily percutaneous application to right flank for 24 days (Example 1); assay type: in vivo, C57BL/6J mice; details: for Mean weight gain relative to vehicle / Mean weight gain / Local increase in subcutaneous fat (treated right flank vs untreated left flank): 5 mM in Lipoderm; for Mean weight gain relative to vehicle / Mean weight gain: 0.1 cc to flank daily, Day 0 until Day 24; for Mean weight gain: high-fat diet; for Local increase in subcutaneous fat (treated right flank vs untreated left flank): following 24 days of therapy
Description: The arms were as follows: vehicle (Lipoderm®), a thiazolidinedione (pioglitazone), harmine, an orexigenic compound (megestrol acetate), and efavirenz. Each compound was combined in the percutaneous Lipoderm® formulation at an equimolar concentration (5 mM). The Lipoderm® vehicle is adapted to deliver the respective compound percutaneously, i.e., across the skin and into subcutaneous fat. The formulations were applied daily to the right flank of each animal, whereas the left flank was used as an untreated control.
A randomized controlled trial was conducted on C57BL/6J. Male mice approximately six weeks old were prospectively randomized into groups and assigned to the following treatment conditions (n=5 animals per group):
Animals were shaved and depilated over the flanks at the start of the study.
Animals were kept in identical conditions and fed ab libitum with a standardized high-fat diet (70% kcal fat). Animals were weighed three times weekly. Following 24 consecutive days of treatment, mice were sacrificed and samples of skin and adjacent fat from the treated flanks are taken for histologic examination.

subcutaneous fat [5] = test: Clinical application for augmentation of the buttocks (Example 9); assay type: in vivo, human; details: 10 mg/ml in Lipoderm daily, after 6 months
Description: The following description exemplifies a clinical application of percutaneous administration of an orexigenic pregnane derivative for augmentation of the buttocks. A female or male patient wishes to undergo a buttocks augmentation procedure but is concerned about the risks of surgery. The physician prescribes a daily application of megestrol acetate (for example, 10 mg/ml in Lipoderm®) to the buttocks.

## CN(CCOc1ccc(CC2SC(=O)NC2=O)cc1)c1ccccn1 (stereo not drawn) [Rosiglitazone]
Subcutaneous fat [1]; mean of 24 locations, vehicle mean 4.39, p < .0001 (paired t-test)
  Fat Thickness (mm), Rosiglitazone Treatment Area, MEAN: 6.29* mm
Subcutaneous fat [1]
  Rosiglitazone Increase over Placebo (fat thickness), MEAN: 48%
Subcutaneous fat [1]; listed as rosiglitazone
  Rosiglitazone Increase over Placebo (fat thickness), MEAN: 48%
Subcutaneous fat [1]; minipig, in vivo
  Tolerability, skin irritation and clinical observations: well tolerated, with no evidence of skin irritation or other clinical observations
[2]
  Peak plasma level (Cmax): 0.355 µg/mL
  Plasma exposure (AUC0-24): 2.542 µg·h/mL
Subcutaneous fat [3]
  Adverse effects: No adverse effects were noted

## CC(=O)O[C@]1(C(C)=O)CC[C@H]2[C@@H]3C=C(C)C4=CC(=O)CC[C@]4(C)[C@H]3CC[C@@]21C [Megestrol acetate]
Subcutaneous fat [4]
  Mean weight gain relative to vehicle: 120%
  Mean weight gain: 8.0 g
  Local increase in subcutaneous fat (treated right flank vs untreated left flank): local increases in subcutaneous fat
Subcutaneous fat [4]; Day 24, treated vs untreated flank
  Relative skin fold thickness of the left and right flanks: asymmetric, with thicker skin folds on the treated flanks
Subcutaneous fat [4]; representative mouse, 24 days of treatment, untreated left flank about 2 mm
  Skin fold thickness, right (treated) flank: about 4 mm
Subcutaneous fat [5]
  Clinical size of buttocks: the buttocks appear clinically larger

## O=C1Nc2ccc(Cl)cc2[C@@](C#CC2CC2)(C(F)(F)F)O1 [Efavirenz]
Subcutaneous fat [4]
  Mean weight gain relative to vehicle: 92%
  Mean weight gain: 6.1 g
  Local increase in subcutaneous fat (treated right flank vs untreated left flank): did not exhibit any increase in fat or asymmetry

## COc1ccc2c(c1)[nH]c1c(C)nccc12 [Harmine]
Subcutaneous fat [4]
  Mean weight gain relative to vehicle: 102%
  Mean weight gain: 6.8 g
  Local increase in subcutaneous fat (treated right flank vs untreated left flank): did not exhibit any increase in fat or asymmetry

## CCc1ccc(CCOc2ccc(CC3SC(=O)NC3=O)cc2)nc1 (stereo not drawn) [Pioglitazone]
Subcutaneous fat [4]
  Mean weight gain relative to vehicle: 112%
  Mean weight gain: 7.4 g
